According to patent publication US20250179061A1 (SIRONAX LTD., priority 2022, published 2025):

test system: HT-29 cells; experiment: HT-29 necroptosis cell viability assay (TNF-α/SMAC mimetic/zVAD-FMK, CellTiter-Glo); type: cell-based; settings: Homo sapiens, HT-29, HT-29 necroptosis cell viability, IC50 class symbols; read-out: Activity
Outline: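 HT-29 cells (~5,000/well, overnight) in FBS-free McCoy's 5A with TNF-α 10 ng/ml, SMAC mimetic 6 μM and zVAD-FMK 10 μM plus 10-point 1:3 compound titration, 20 h at 37°C. ATP measured by CellTiter-Glo luminescence; IC50 as geometric mean of duplicates.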

| Compound | IC50 |
| --- | --- |
| C[C@H]1C[C@@H](O)CN1c1cc(Oc2ccc(-n3ncn(Cc4c(F)cccc4F)c3=O)cc2)ccn1 [Example 289, 4-(2,6-difluorobenzyl)-2-(4-((2-((2S,4R)-4-hydroxy-2-methylpyrrolidin-1-yl)pyridin-4-yl)oxy)phenyl)-2,4-dihydro-3H-1,2,4-triazol-3-one] | < 100 nM |
| Cc1cnc(Cl)cc1Oc1ccc(-n2ncn(Cc3c(F)cccc3F)c2=O)cc1Cl [Example 290, 2-(3-chloro-4-((2-chloro-5-methylpyridin-4-yl)oxy)phenyl)-4-(2,6-difluorobenzyl)-2,4-dihydro-3H-1,2,4-triazol-3-one] | < 100 nM |
| C[C@H]1[C@@H](NC(=O)OC(C)(C)C)CN1c1cc(Oc2ccc(-n3ncn(Cc4c(F)cccc4F)c3=O)cc2F)c(F)cn1 [Example 291, tert-butyl ((2S,3S)-1-(4-(4-(4-(2,6-difluorobenzyl)-5-oxo-4,5-dihydro-1H-1,2,4-triazol-1-yl)-2-fluorophenoxy)-5-fluoropyridin-2-yl)-2-methylazetidin-3-yl)carbamate] | < 100 nM |
| CC1(C#N)CN(c2cc(Oc3ccc(-n4nc5n(c4=O)C(c4ccccc4)CC5)cc3F)c(F)cn2)C1 (stereo not drawn) [Example 292, 1-(5-fluoro-4-(2-fluoro-4-(3-oxo-5-phenyl-6,7-dihydro-3H-pyrrolo[2,1-c][1,2,4]triazol-2(5H)-yl)phenoxy)pyridin-2-yl)-3-methylazetidine-3-carbonitrile] | < 100 nM |
| CC(C)(O)C1CCN1c1cc(Oc2ccc(-n3ncn(Cc4c(F)cccc4F)c3=O)cc2F)c(F)cn1 (stereo not drawn) [Example 293, 4-(2,6-difluorobenzyl)-2-(3-fluoro-4-((5-fluoro-2-(2-(2-hydroxypropan-2-yl)azetidin-1-yl)pyridin-4-yl)oxy)phenyl)-2,4-dihydro-3H-1,2,4-triazol-3-one] | < 100 nM |
| Cc1cnc(N2CC(C)(C#N)C2)cc1Oc1ccc(-n2ncn(Cc3c(F)cccc3F)c2=O)cc1F [Example 294, 1-(4-(4-(4-(2,6-difluorobenzyl)-5-oxo-4,5-dihydro-1H-1,2,4-triazol-1-yl)-2-fluorophenoxy)-5-methylpyridin-2-yl)-3-methylazetidine-3-carbonitrile] | < 100 nM |
| Cc1nc(N2CCOCC2)sc1Oc1ccc(-n2ncn(Cc3c(F)cccc3F)c2=O)cc1F [Example 295, 4-(2,6-difluorobenzyl)-2-(3-fluoro-4-((4-methyl-2-morpholinothiazol-5-yl)oxy)phenyl)-2,4-dihydro-3H-1,2,4-triazol-3-one] | < 100 nM |
| Cc1nc(N2CCN(C)CC2)sc1Oc1ccc(-n2ncn(Cc3c(F)cccc3F)c2=O)cc1F [Example 296, 4-(2,6-difluorobenzyl)-2-(3-fluoro-4-((4-methyl-2-(4-methylpiperazin-1-yl)thiazol-5-yl)oxy)phenyl)-2,4-dihydro-3H-1,2,4-triazol-3-one] | < 100 nM |
| C[C@H]1CCCN1c1cc(Oc2ccc(-n3ncn(Cc4c(F)cccc4F)c3=O)cc2F)c(F)cn1 [Example 297, (S)-4-(2,6-difluorobenzyl)-2-(3-fluoro-4-((5-fluoro-2-(2-methylpyrrolidin-1-yl)pyridin-4-yl)oxy)phenyl)-2,4-dihydro-3H-1,2,4-triazol-3-one] | < 100 nM |
| Cc1nc(NC2=NC(C)(C)CO2)sc1Oc1ccc(-n2ncn(Cc3c(F)cccc3F)c2=O)cc1Cl [Example 298, 2-(3-chloro-4-((2-((4,4-dimethyl-4,5-dihydrooxazol-2-yl)amino)-4-methylthiazol-5-yl)oxy)phenyl)-4-(2,6-difluorobenzyl)-2,4-dihydro-3H-1,2,4-triazol-3-one] | < 100 nM |
| Cc1nc(N2CC(C)(O)C2)sc1Oc1ccc(-n2ncn(Cc3c(F)cccc3F)c2=O)cc1F [Example 299, 4-(2,6-difluorobenzyl)-2-(3-fluoro-4-((2-(3-hydroxy-3-methylazetidin-1-yl)-4-methylthiazol-5-yl)oxy)phenyl)-2,4-dihydro-3H-1,2,4-triazol-3-one] | < 100 nM |
| O=c1n(Cc2c(F)cccc2F)cnn1-c1ccc(Oc2ccnc(N3CC4(CCO4)C3)c2)cc1 [Example 300, 4-[(2,6-difluorophenyl)methyl]-2-[4-[[2-(1-oxa-6-azaspiro[3.3]heptan-6-yl)-4-pyridyl]oxy]phenyl]-1,2,4-triazol-3-one] | 100 to 1000 nM |
| CCOC1CN(c2cc(Oc3ccc(-n4nc5n(c4=O)C(c4ccccc4)CC5)cc3)ccn2)C1 (stereo not drawn) [Example 301, 2-[4-[[2-(3-ethoxyazetidin-1-yl)-4-pyridyl]oxy]phenyl]-5-phenyl-6,7-dihydro-5H-pyrrolo[2,1-c][1,2,4]triazol-3-one] | < 100 nM |
| COC1(C#N)CN(c2cc(Oc3ccc(-n4ncn(Cc5c(F)cccc5F)c4=O)cc3)c(F)cn2)C1 [Example 302, 1-(4-(4-(4-(2,6-difluorobenzyl)-5-oxo-4,5-dihydro-1H-1,2,4-triazol-1-yl)phenoxy)-5-fluoropyridin-2-yl)-3-methoxyazetidine-3-carbonitrile] | < 100 nM |
| CC(C)(C)OC1CN(c2nccc(Oc3ccc(-n4ncn(Cc5c(F)cccc5F)c4=O)cc3)c2F)C1 [Example 303, 2-(4-((2-(3-(tert-butoxy)azetidin-1-yl)-3-fluoropyridin-4-yl)oxy)phenyl)-4-(2,6-difluorobenzyl)-2,4-dihydro-3H-1,2,4-triazol-3-one] | < 100 nM |
| CCOC1CN(c2nccc(Oc3ccc(-n4nc(C)n(Cc5ccccc5)c4=O)cc3)c2F)C1 [Example 304, 4-benzyl-2-[4-[[2-(3-ethoxyazetidin-1-yl)-3-fluoro-4-pyridyl]oxy]phenyl]-5-methyl-1,2,4-triazol-3-one] | 100 to 1000 nM |
| CCOC1CN(c2nccc(Cl)c2Oc2ccc(-n3nc(C)n(Cc4ccccc4)c3=O)cc2)C1 [Example 305, 4-benzyl-2-[4-[[4-chloro-2-(3-ethoxyazetidin-1-yl)-3-pyridyl]oxy]phenyl]-5-methyl-1,2,4-triazol-3-one] | 100 to 1000 nM |
| O=c1n(Cc2c(F)cccc2F)cnn1-c1ccc(Oc2ccnc(NC34CC(C3)C4)c2)cc1 [Example 306, 2-[4-[[2-(1-bicyclo[1.1.1]pentanylamino)-4-pyridyl]oxy]phenyl]-4-[(2,6-difluorophenyl)methyl]-1,2,4-triazol-3-one] | 100 to 1000 nM |
| O=c1n(Cc2c(F)cccc2F)cnn1-c1ccc(Oc2c(N3CC4(CCOCC4)C3)ccnc2Cl)cc1 [Example 307, 2-(4-((2-chloro-4-(7-oxa-2-azaspiro[3.5]nonan-2-yl)pyridin-3-yl)oxy)phenyl)-4-(2,6-difluorobenzyl)-2,4-dihydro-3H-1,2,4-triazol-3-one] | 100 to 1000 nM |
| Cc1cc(-n2ncn(Cc3c(F)cccc3F)c2=O)ccc1Oc1cc(NC23CC(C#N)(C2)C3)ncc1F [Example 308, 3-((4-(4-(4-(2,6-difluorobenzyl)-5-oxo-4,5-dihydro-1H-1,2,4-triazol-1-yl)-2-methylphenoxy)-5-fluoropyridin-2-yl)amino)bicyclo[1.1.1]pentane-1-carbonitrile] | 100 to 1000 nM |
| CC(C)(C)OC(=O)Nc1cc(Oc2ccc(-n3ncn(Cc4c(F)cccc4F)c3=O)cc2)ccn1 [Example 309, tert-butyl (4-(4-(4-(2,6-difluorobenzyl)-5-oxo-4,5-dihydro-1H-1,2,4-triazol-1-yl)phenoxy)pyridin-2-yl)carbamate] | < 100 nM |
| Nc1cc(Oc2ccc(-n3ncn(Cc4c(F)cccc4F)c3=O)cc2)ccn1 [Example 310, 2-(4-((2-aminopyridin-4-yl)oxy)phenyl)-4-(2,6-difluorobenzyl)-2,4-dihydro-3H-1,2,4-triazol-3-one] | 100 to 1000 nM |
| CC(C)(C)OC(=O)Nc1cc(Oc2ccc(-n3ncn(Cc4ccccc4)c3=O)cc2)ccn1 [Example 311, tert-butyl (4-(4-(4-benzyl-5-oxo-4,5-dihydro-1H-1,2,4-triazol-1-yl)phenoxy)pyridin-2-yl)carbamate] | 100 to 1000 nM |
| Cc1nc(CC2CNC2)sc1Oc1ccc(-n2ncn(Cc3c(F)cccc3F)c2=O)cc1 [Example 312, 2-(4-((2-(azetidin-3-ylmethyl)-4-methylthiazol-5-yl)oxy)phenyl)-4-(2,6-difluorobenzyl)-2,4-dihydro-3H-1,2,4-triazol-3-one] | < 100 nM |
| N#CC12CC(Nc3nccc(Oc4ccc(-n5ncn(Cc6c(F)cccc6F)c5=O)cc4Cl)c3Cl)(C1)C2 [Example 313, 3-((3-chloro-4-(2-chloro-4-(4-(2,6-difluorobenzyl)-5-oxo-4,5-dihydro-1H-1,2,4-triazol-1-yl)phenoxy)pyridin-2-yl)amino)bicyclo[1.1.1]pentane-1-carbonitrile] | 100 to 1000 nM |
| COC1(C#N)CN(c2cc(Oc3ccc(-n4ncn(Cc5c(F)cccc5F)c4=O)cc3Cl)ccn2)C1 [Example 314, 1-(4-(2-chloro-4-(4-(2,6-difluorobenzyl)-5-oxo-4,5-dihydro-1H-1,2,4-triazol-1-yl)phenoxy)pyridin-2-yl)-3-methoxyazetidine-3-carbonitrile] | < 100 nM |
| O=c1n(Cc2c(F)cccc2F)cnn1-c1ccc(Oc2ccnc(N3CC4(CCN4)C3)c2)cc1 [Example 315, 2-(4-((2-(1,6-diazaspiro[3.3]heptan-6-yl)pyridin-4-yl)oxy)phenyl)-4-(2,6-difluorobenzyl)-2,4-dihydro-3H-1,2,4-triazol-3-one] | < 100 nM |
| C[C@H]1C[C@H](N)CN1c1cc(Oc2ccc(-n3ncn(Cc4c(F)cccc4F)c3=O)cc2)ccn1 [Example 316, 2-(4-((2-((2S,4S)-4-amino-2-methylpyrrolidin-1-yl)pyridin-4-yl)oxy)phenyl)-4-(2,6-difluorobenzyl)-2,4-dihydro-3H-1,2,4-triazol-3-one] | < 100 nM |
| CC(C)(C)OC(=O)N1CCC12CN(c1cc(Oc3ccc(-n4ncn(Cc5c(F)cccc5F)c4=O)cc3)ccn1)C2 [Example 317, tert-butyl 6-(4-(4-(4-(2,6-difluorobenzyl)-5-oxo-4,5-dihydro-1H-1,2,4-triazol-1-yl)phenoxy)pyridin-2-yl)-1,6-diazaspiro[3.3]heptane-1-carboxylate] | 1000 to 10000 nM |
| CCNC1CN(c2cc(Oc3ccc(-n4ncn(Cc5c(F)cccc5F)c4=O)cc3)ccn2)C1 [Example 318, 4-(2,6-difluorobenzyl)-2-(4-((2-(3-(ethylamino)azetidin-1-yl)pyridin-4-yl)oxy)phenyl)-2,4-dihydro-3H-1,2,4-triazol-3-one] | 100 to 1000 nM |
